Assay results: patent publication EP0441876B1, “NON-BIOA[…]” (COULSTON INTERNATIONAL CORPORATION, priority 1988, dated 1990)

Experiments:
[1] = test system: Blatella germanica (German cockroach); test: Contact test at 1% concentration; type: in vivo
[2] = test system: Mosca domestica (House fly); test: Contact test at 1% concentration; type: in vivo
[3] = test system: Maize Weevil; test: Contact test at 1% concentration; type: in vivo
[4] = test system: Grainery Weevil; test: Contact test at 1% concentration; type: in vivo
[5] = test system: Tenebrio molitor (Greater Meal Worm); test: Contact test at 1% concentration; type: in vivo
[6] = test system: Mosquitoes: Aedes aegypti, Anopheles quadramaculatus; test: Insecticide testing on filter paper: knock-down and killing effect (Table 5); type: in vivo; settings: for Lowest Concentration With Killing Effect / Lowest Concentration for Knockdown: concentration of acetone solution, 1 ml on filter paper
Experimental: (§1) • I. Insecticide Testing Insects: Mosquitoes Species: Aedes aegypti, Anopheles quadramaculatus The mosquitoes were bred under controlled conditions (humidity, temperature and nutrition) at White Sands Research center. Test room temperature: approximately 70 F (average) Test room humidity: between 50% and 70% (average) Procedure: The test compounds were dissolved in HPLC grade acetone at the appropriate concentrations. One ml of the solution was applied with a disposable 1 ml syringe on filter paper (Whatman 541, 9.0 cm diameter). After evaporatin of the acetone, the filter paper was placed in a Petri dish (diameter also about 9.0 cm) with alid. […] The mosquitoes (not less than 5 or more than 20) were transferred in the dish through a hole in the lid. The lid was stopped up with a cotton ball wrapped in filter paper and soaked in sugar water. Two dishes with control insects - the filter paper was treated with 1 ml pure acetone - were observed. Readings were taken 3 to 4 times during the first hour, thereafter every hour. […] "Down" (D) = mosquitoes are disabled to fly, lay on their back or side. "Dead" = mosquitoes are completely moveless (e.g. no movement of body, legs or wints). these criteria can be considered as very strict. • II. Bioaccumulation Tests in Rats Species: Sprague Dawley and Fisher Rats Sex: Female Age/Weight: Young rats (average weight between 130 and 180 grams) Procedure: The animals were housed in stainless steel metabolism cages in a temperature controlled animal room. They were quarantined for at least 6 days before being placed on the study. Three rats were taken for each test compound (see appendix for dose levels). Each animal was dosed on five consecutive days by oral gavage. The test compound was dissolved or suspended in 0.5% carboxy methyl cellulose solution or corn oil (Mazola). After 14 days the rats were sacrificed by CO2. Samples of fat (abdominal) liver, kidneys, brain and muscle (leg) were removed and extracted for analysis. The fat of each rat was analyzed separately with regard to the individual total dose. The other organs of all three rats were combined and analyzed with regard to the total dose being applied to all three rats. The analysis was done by gas chromatography under ECD (electron capture detector) detection.

[7] = test system: Ctenocephalides felis (Cat fleas); test: Contact test at 1% concentration; type: in vivo
[8] = test system: Aedes aegypti; test: Filter paper test for insecticidal activity against mosquitoes (Table 3); type: in vivo; settings: for 100 % kill: time after which 100% of the mosquitoes were killed
Experimental: The experimental design of the test for activity against mosquitoes is as follows.
[…] The filter paper was then placed in a petri dish and 10-20 mosquitoes (Aedes aegypti) added. The effect of the chemical on the mosquitoes (flying activity, mortality) was observed and recorded for up to 72 hours. Generally the experiments were in triplicate, the parent cyclodiene and its dechlorinated derivative were tested and compared to the control; the filter paper of the control was treated with acetone only. A total of 9 pairs of chemicals (parent cyclodiene and dechlorinated derivative) and CIC-134 were tested according to the procedure above.

[9] = test system: Cimex lectularius (Bed bugs); test: Contact test at 1% concentration; type: in vivo
[10] = test system: Pediculus humanus (Lice); test: Contact test at 1% concentration; type: in vivo
[11] = test system: Acheta domestica (Crickets); test: Contact test at 1% concentration; type: in vivo
[12] = test system: Sitophilus Oryza (Rice Weevil); test: Contact test at 1% concentration; type: in vivo
[13] = Bioaccumulation tests in rats; type: in vivo, Sprague Dawley and Fisher Rats; settings: female rats, oral gavage on five consecutive days, sacrificed after 14 days, tissue analysis by GC-ECD with regard to total dose
Experimental: as §1

[14] = 1% solution in acetone, 1 ml on filter paper, time after which 100% of the mosquitoes were affected (dead, lying down, wobbly, erratic)
[15] = 1% solution in acetone, 1 ml on filter paper

Compound | Lowest Concentration With Killing Effect [6] | Lowest Concentration for Knockdown [6] | 100% effect [8, 14] | 100 % kill [8, 15] | Bioaccumulation in Rats [13] | other results
Cl[C@@H]1[C@H](Cl)[C@]2(Cl)CC[C@@]1(Cl)C2 [CIC-145, 1,2-endo,3-endo,4-tetrachloronorbornane] | 0.04% | 0.08% | 0.08 h | 3 h | >> 0.01% | insecticidal effect in contact test [1]: effective insecticides; insecticidal effect in contact test [2]: effective insecticides; insecticidal effect in contact test [3]: effective insecticides; insecticidal effect in contact test [4]: effective insecticides; insecticidal effect in contact test [5]: effective insecticides; mortality at 0.04 % ([6]; 0.04%, after 5 hours, read-out: dead): 62%; down ([6]; 0.08%, after 5 minutes): 63%; insecticidal effect in contact test [7]: effective insecticides; insecticidal effect in contact test [9]: effective insecticides; insecticidal effect in contact test [10]: effective insecticides; insecticidal effect in contact test [11]: effective insecticides; insecticidal effect in contact test [12]: effective insecticides
CC1CC2(Cl)CCC1(Cl)C2(Cl)Cl (stereo not shown) [CIC-151, 1,4,7,7-tetrachloro-2-methyl-norbornane] | 0.50% | 0.5% |  |  | 0.01% | down ([6]; 0.5%, time not given): 73%; mortality at 0.5 % ([6]; read-out: dead): 73%; 100% effect ([8]; 0.5% solution in acetone on filter paper, time after which 100% of the mosquitoes were affected): 0.16 h; 100 % kill ([8]; 0.5% solution in acetone on filter paper): 12 h
1,4,7,7-Tetrachloro-bicyclo- [2.2.1]-heptane-poxide (less) [CIC-149] | 0.063% | 0.5% | 0.33 h | 9 h |  | dead ([6]; 0.063%, after 6 hours): 67%; down ([6]; 0.5%, after 10 minutes): 36%; Knock-down, remark in words ([6]; in vivo): Not very fast knock-down
Cl[C@H]1[C@H](Cl)[C@@]2(Cl)CC[C@]1(Cl)C2(Cl)Cl [CIC-146, 1,2-exo,3-endo,4,7,7-hexachloronorbornane] | > 1% |  | 3 h | 24 h |  | 
Cl[C@@H]1C[C@]2(Cl)CC[C@@]1(Cl)C2(Cl)Cl [CIC-141, 1,2-endo,4,7,7-pentachloronorbornane] | 0.125% | 0.5% | 0.25 h | 10 h |  | down ([6]; 0.5%, 5 minutes): 38%
1,2-endo,3-endo,4,7-anti-pentachlronorbornane [CIC-148] | 0.015% | 0.06% | 0.08 h | 6 h | ~1.30% (estimate value) | dead ([6]; 0.015%, after 5 hours): 60%; down ([6]; 0.06%, time not given): 80%
ClC1=CC2(Cl)CCC1(Cl)C2(Cl)Cl (stereo not shown) [CIC-147, 1,2,4,7,7-pentachloronorborn-2-ene] | 0.125% | 0.125% | 0.08 h | 9 h | 1.04% | down ([6]; 0.125%, 10 minutes): 63%; mortality at 0.125 % ([6]; 1.5 h, read-out: dead): 50%
1,4,7,7-Tetrachloro-bicyclo [2.2.1]-heptane epoxide [CIC-150] | 0.5% |  | 4 h | 23 h |  | dead ([6]; 0.5%, after 7 hours): 27%
1,2-endo,3-endo,4,7-syn-pentachloronorbornane [CIC-144] | 0.06% | 0.06% | 0.08 h | 23 h | 0.01% | dead ([6]; 0.06%, after 22 hours): 79%; down ([6]; 0.06%, time not given): 55%
ClC12C=CC(Cl)(CC1)C2(Cl)Cl [CIC-142, 1,4,7,7-tetrachloronorbon-2-ene] | 0.3% | 0.75% | 0.25 h | 3 h | 1.24% | insecticidal effect in contact test [1]: effective insecticides; insecticidal effect in contact test [2]: effective insecticides; insecticidal effect in contact test [3]: effective insecticides; insecticidal effect in contact test [4]: no effect; insecticidal effect in contact test [5]: effective insecticides; down ([6]; 0.75%, after 4 minutes): 37%; insecticidal effect in contact test [7]: effective insecticides; insecticidal effect in contact test [9]: effective insecticides; insecticidal effect in contact test [10]: effective insecticides; insecticidal effect in contact test [11]: only mildly effective; insecticidal effect in contact test [12]: effective insecticides
1,2,3,4,5-endo,6-endo,7-syn-heptachoronorborn-2-ene [CIC-143] |  |  | 2 h | 23 h |  | 
